Measurements: patent US9187458B2, “Cyanoquinoline derivatives” (Tianjin Hemay Bio-Tech Co., LTD., priority 2010, dated 2015)

Assays:
A549 cells = assay: A549 Cell Growth Inhibition Test (MTT Assay); type: cell-based; details: Homo sapiens, 72 h incubation
Protocol: A549 Cell Growth Inhibition Test (MTT Assay)
1. Cell strains: […] (human lung caner cell strains);
Culture medium: 90% F12K+10% FBS;
(§1) 1. A plate (10 cm) of cells in logarithmic growth phase normally cultured was collected;
2. The culture solution was sucked out. Tthe plate was washed with 5 ml of PBS 1-2 times;
(§2) 3. PBS was sucked out. 2 ml of 0.25% pancreatin was added to infiltrate the cells for 1 min;
(§3) 4. The pancreatin was sucked out. The culture plate was placed in an incubator. Digestion was carried out for about 2 min at 37° C.;
(§4) 5. 4 ml of complete culture solution was added to the culture plate to stop the digestion. The cells were carefully scoured with micropipette (1 ml) to give a uniform cell suspension. The suspension was implanted into a 96-well cell culture plate by 2500 cells/100 μl per well. The culture plate was incubated overnight under 5% CO2 at 37° C. In day 2, 100 μl of culture solution comprising a compound was added in each well, and further incubated for 72 h under 5% CO2 at 37° C.
(§5) 6. The culture solution was sucked out;
(§6) 7. 100 μl of serum-free culture solution containing 0.5 mg/ml MTT was added in each well, and incubated for 3 h;
(§7) 8. The culture solution was carefully sucked out;
(§8) 9. 100 μl of DMSO was added in each well and vibrated to dissolve;
(§9) 10. OD values were determined at 490 nM.
(§10) 1. Calculation of Relative Inhibition Ratio The inhibition ratio of a compound on cell growth=(PC−n)/(PC−NC)×100%
(§11) IC50: Concentration of a compound where inhibition ratio was 50%. IC50 values were fitted with Origin7.5.

LoVo cells = assay: LoVo Cell Growth Inhibition Test (MTT Assay); type: cell-based; details: Homo sapiens, 72 h incubation
Protocol: LoVo Cell Growth Inhibition Test (MTT Assay)
1. Cell strains: LoVo (human intestinal cancer cell strains);
as §1
(§12) 2. The culture solution was sucked out. The plate was washed with 5 ml of PBS 1-2 times;
as §2
4. The pancreatin was sucked out. The culture plate was placed in an incubator. Digestion was carried out for about 4 min at 37° C.;
as §4, with “added in” for “added to”, “by 3000-4000” for “by 2500”, “added into” for “added in”
as §5
7. 100 μl of serum-free culture solution containing 0.5 mg/ml MTT was added in each well, and incubated for 4 h;
as §7, §8, §9, §10, §11

NCI-H460 cells = assay: NCI-H460 Cell Growth Inhibition Test (MTT Assay); type: cell-based; details: Homo sapiens, 72 h incubation
Protocol: NCI-H460 Cell Growth Inhibition Test (MTT Assay)
1. Cell strains: NCI-H460 (human large cell lung cancer cell strains);
as §1, §12, §2, §3, §4, §5, §6, §7, §8, §9, §10, §11

Sk-Br-3 cells = assay: Sk-Br-3 Cell Growth Inhibition Test (SRB Assay); type: cell-based; details: Homo sapiens, 91 h incubation
Protocol: Sk-Br-3 Cell Growth Inhibition Test (SRB Assay)
1. Cell strains: Sk-Br-3 (human breast cancer cell strains);
2. SRB: available from Sigmaaldrich, goods number: S9012, lot number: 047K3751. SRB was reserved at the room temperature. 0.4% (w/v) of working solution was formulated with 1% of glacial acetic acid. The solution was reserved at 4° C.; anti-tumor compounds; DMSO
Culture medium: 90% DMEM+10% FBS;
1. A plate (10 cm) of cells in logarithmic growth phase normally cultured was collected. The culture solution was sucked out. The plate was washed with 5 mL of PBS 1-2 times;
2. PBS was sucked out. […] of 0.25% pancreatin was added to infiltrate the cells for 30 s;
3. The pancreatin was sucked out. The culture plate was placed in an incubator. Digestion was carried out for about 1.5-2 min at 37° C.;
4. 4 mL of complete culture solution was added to the culture plate to stop the digestion. The cells were carefully scoured with micropipette (1 ml) to give a uniform single cell suspension;
5. Cell suspension was counted. The suspension was diluted to 1×10^5/ml. The resulting suspension was developed uniformly on a plate by 10000 cells/100 μl per well. The culture plate was incubated overnight under 5% CO2 at 37° C. In day 2, 100 μl of culture solution comprising a compound was added in each well, and further incubated for 91 h under 5% CO2 at 37° C.
6. The culture solution was sucked out. 100 uL of TCA fixed cells which were diluted to 10% were added to each well. The plate was kept in a refrigerator for 1 h at 4° C.
7. TCA stationary liquid was sucked out. Each well was washed with 150 μL of ddH2O five times;
8. After the stationary liquid was cleansed, the plate was dried in the air at the room temperature;
9. 60 μL of SRB staining solution was added in each well. The well was stained for 15 min at the room temperature;
10. The SRB staining solution was sucked out. Each well was washed with 150 μL of 1% glacial acetic acid five times;
11. After the SRB staining solution was cleansed, the plate was dried in the air at the room temperature;
12. 100 μL of 10 mM Tris was added in each well. The plate was vibrated to dissolve out SRB;
13. OD values were determined at 570 nM.
To: OD values of the starting content of cells when the cells were developed on a plate;
PC: OD values of cells after normal growth in control wells without a compound;
Ti: OD values of cells after growth in test wells with a compound;
NC: Background OD values of blank well without a compound and cells
Therefore: Ratio of cells in test wells to normal wells (% of control cell growth)=(Ti−To)/(PC−To)×100%
Ratio GI50 was concentration of a compound at the point of 50%.
Therefore: Ratio of killed cells to inoculated cells (% of killed cells)=(Ti−To)/(To−NC)×100%
LC50 was concentration point of a compound when half of the starting inoculated concentration was reached.
Concentration of a compound at this point is defined as TGI (total growth inhibition).

AsPC-1 cells = assay: AsPC-1 Cell Growth Inhibition Test (MTT Assay); type: cell-based; details: Homo sapiens, ASPC1, 72 h incubation
Protocol: AsPC-1 Cell Growth Inhibition Test (MTT Assay)
Cell strains: AsPC-1 (human pancreatic cancer cell strains);
as §1, §12
(§13) 3. PBS was sucked out. 1.5 ml of 0.25% pancreatin was added to infiltrate the cells for 1 min;
4. The pancreatin was sucked out. The culture plate was placed in an incubator. Digestion was carried out for about 7.5 min at 37° C.;
as §4, with “4.5” for “4”, “8000” for “2500”
as §5, §6, §7
(§14) 9. 100 μl of DMSO was added in each welland vibrated to dissolve;
as §9, §10, §11

Her2 kinase = target: T1, Her2 kinase (Homo sapiens, UniProt P04626); assay: Inhibition Activity Assay on Her2 Enzyme (ELISA, PGT substrate); type: biochemical; details: 8 min at 4° C., read-out: Inhibition Activity (EC50) on Her-2
T1 construct: purchased Cell Signaling Tech #7382
T1 sequence (P04626 676-1255 limits assumed): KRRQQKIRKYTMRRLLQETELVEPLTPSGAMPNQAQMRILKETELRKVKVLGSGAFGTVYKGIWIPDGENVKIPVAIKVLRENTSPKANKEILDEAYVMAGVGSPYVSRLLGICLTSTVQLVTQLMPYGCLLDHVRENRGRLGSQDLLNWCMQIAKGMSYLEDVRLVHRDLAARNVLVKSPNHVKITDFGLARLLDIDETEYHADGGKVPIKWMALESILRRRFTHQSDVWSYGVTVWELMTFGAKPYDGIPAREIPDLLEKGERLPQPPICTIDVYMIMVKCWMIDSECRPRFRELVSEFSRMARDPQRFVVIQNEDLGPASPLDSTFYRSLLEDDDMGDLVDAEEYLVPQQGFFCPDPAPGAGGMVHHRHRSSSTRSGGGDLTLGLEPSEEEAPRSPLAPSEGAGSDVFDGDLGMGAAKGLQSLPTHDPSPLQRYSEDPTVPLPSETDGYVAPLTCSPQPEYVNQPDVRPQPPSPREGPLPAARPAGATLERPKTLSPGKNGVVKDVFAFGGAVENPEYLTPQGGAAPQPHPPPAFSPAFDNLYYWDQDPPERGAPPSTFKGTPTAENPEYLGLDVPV
Protocol: Inhibition Activity Assay on Her2 Enzyme
1. Her2 kinase, Cell Signaling Tech, #7382, Lot. 2, reserved at −80° C.;
2. PBST: PBS+0.05% (v/v) Tween 20;
3. Confining liquid: 3% of BSA in PBS;
4. HEPEs buffer (2×): 50 mM HEPEs, 20 mM MgCl2, 0.1 mM MnCl2, 0.2 mM Na3VO4, adjusted to pH of 7.4 with NaOH;
5. PGT, Sigma, Cat#P0275): 2 mg/ml of stock solution was prepared by dissolving PBS, reserved at −20° C.
6. ATP: […] of stock solution was prepared by dissolving ddH2O, reserved at −20° C.;
7. Mice anti-phosphorylation tyrosine-HRP: Invitrogen-037720, 0.5 mg/ml, reserved at 4° C.;
8. TMB: Cell Signaling Tech, Cat #7004L;
9. DTT: 2.5 M of stock solution was prepared with ddH2O, reserved at −20° C. Before use, 2×HEPEs buffer was added in the solution to the final concentration of 1.25 mM.
1. 2 mg/ml of PGT was diluted with PBS to 0.2 mg/ml. 60 μl of the resulting solution was added in each well. The elisa plate was placed in a refrigerator at 4° C. and coated overnight;
2. The coating solution was discarded to stop the coating. The plate was washed four times with PBS, and then beaten to dryness;
3. The elisa plate was placed in a refrigerator at 4° C., drained out and stood for 3h.
4. […] of aqueous solution of each compound was diluted with ddH2O to a desirable concentration. Then, the solution was added in the corresponding elisa well by 25 μl/well;
5. 2 nM of ATP solution was diluted with ddH2O to 25 folds and then sufficiently mixed. The resulting solution was separately added in each elisa well by 25 μl per well (25 μl ddH2O was added in the negative control);
6. Her2 kinase was diluted with 2×TKB to 800 folds. The resulting solution was added in the elisa well by 50 μl per well. Then, the enzyme reaction began. Moreover, the elisa plate was immediately placed in a micro-oscillator. The reaction is carried out for 8 min at the temperature of 4° C.;
7. 2% of SDS was added in the elisa well to stop the reaction by adding 100 μl of SDS in each well. The solution was sufficiently mixed on the micro-oscillator to sufficiently mix for about 5 min;
8. The reaction solution was sucked out. The plate was washed four times with PBST. After the plate was beaten to dryness, 0.25 μg/ml of mice anti-phosphorylation tyrosine-HRP which was diluted with confining liquid was added in the plate by 100 μl per well, and then reacted for 30 min at the room temperature.
9. The antibody reaction solution was sucked out. The plate was washed six times with PBST. After the plate was beaten to dryness, TMB peroxidase substrate was added in the plate with 100 μl/well, and then reacted in the dark for 15 min at the room temperature;
10. 100 μl of 2N H2SO4 was added in the solution to stop the chromogenic reaction. After the bubbles were cleansed, the solution was measured in elisa at 450 nm.
OD values were converted in relative inhibition ratios according to following formula: Relative inhibition ratio=[1−(experiment values−NC mean values)/(PC mean values−NC mean values)]×100%

CCRF-CEM/T cells = assay: CCRF-CEM/T Cell Growth Inhibition Test (MTT Assay); type: cell-based; details: Homo sapiens, CCRF-CEM/T cells (resistant to paclitaxel), 72 h incubation
Protocol: CCRF-CEM/T Cell Growth Inhibition Test (MTT Assay)
Cell strains: CCRF-CEM/T (human acute lymphocytic cell leukemia cells);
triple lysate solution: 10% SDS, 5% isobutanol, 0.012M HCl.
1. Cells were cultured to exponential phase. The cells were suspension cells;
2. The cells were collected by centrifuge. The resulting cells were resuspended in a complete culture medium to a desired concentration. The cells suspension was implanted into a 96-well cell culture plate by 20000 cells per well. A compound was added in the wellsuch that the final volume of the system was 120 μl. The system was further incubated for 72 h under 5% CO2 at 37° C.
7. 30 μl of serum-free culture solution containing 2.5 mg/ml MTT was added in each well, and incubated for 3 h;
8. 150 μl of triple lysate solution was added in each well and placed to dissolve at the room temperature;
9. OD values were determined at 570 nM.
as §10, §11

Fadu cells = assay: Fadu Cell Growth Inhibition Test (MTT Assay); type: cell-based; details: Homo sapiens, 72 h incubation
Protocol: Fadu Cell Growth Inhibition Test (MTT Assay)
Cell strains: Fudu (human head and neck cancer cell strains);
Culture medium: 90% EMEM+10% FBS;
as §1, §12, §13
(§15) 4. The pancreatin was sucked out. The culture plate was placed in an incubator. Digestion was carried out for about 5 min at 37° C.;
as §4, with “4.5” for “4”, “6000” for “2500”
as §5, §6, §7, §14, §9, §10, §11

SK-OV-3 cells = assay: SK-OV-3 Cell Growth Inhibition Test (MTT Assay); type: cell-based; details: Homo sapiens, 72 h incubation
Protocol: SK-OV-3 Cell Growth Inhibition Test (MTT Assay)
Cell strains: SK-OV-3 (human ovarian cancer cell strains);
Culture medium: 90% McCoy's 5A+10% FBS;
as §1, §12, §13, §15
as §4, with “5. 4.5 ml of” for “5. 4 ml of”, “stop the digestion.T the cells were” for “stop the digestion. The cells were”, “cell culture disc by 4000” for “cell culture plate by 2500”, “disc by 4000 cells/100 μl” for “plate by 2500 cells/100 μl”
as §5, §6, §7, §8, §9, §10, §11

Row | IC50 (A549 cells) [nM] | IC50 (LoVo cells) [nM] | IC50 (NCI-H460 cells) [nM] | IC50 (AsPC-1 cells) [nM] | EC50 (Her2 kinase) [nM] | IC50 (CCRF-CEM/T cells) [nM] | IC50 (SK-OV-3 cells) [nM] | SMILES | GI50 (Sk-Br-3 cells) [nM] | IC50 (Fadu cells) [nM]
1 | 1500 | 1300 | 940 | 1400 |  |  |  | CN(C)C/C=C/C(=O)Nc1cc2c(Nc3ccc(OCc4ccc(C(C)(C)C)cc4)c(Cl)c3)c(C#N)cnc2cc1OC1CCOC1 (stereo not shown) [Example 14, (E)-N-(4-(4-(4-TERT-BUTYLBENZYLOXY)-3-CHLOROPHENYLAMINO)-3-CYANO-7-(TETRAHYDROFURAN-3-YL-OXY)QUINOLIN-6-YL)-4-(DIMETHYLAMINO)-BUT-2-ENAMIDE] | 924 | 
2 |  |  |  |  | 291 |  |  | N#Cc1cnc2cc(OC3CCOC3)c(NC(=O)C=C3CCNCC3)cc2c1Nc1ccc(F)c(Cl)c1 (stereo not shown) [Example 42, N-(4-(3-CHLORO-4-FLUOROPHENYLAMINO)-3-CYANO-7-(TETRAHYDROFURAN-3-YL-OXY)QUINOLIN-6-YL)-2-(PIPERIDIN-4-YLIDENE)ACETAMIDE] |  | 
3 |  |  |  | 770 |  | 1800 | 331 | CN(C)C/C=C/C(=O)Nc1cc2c(Nc3ccc(OCc4ccccn4)c(Cl)c3)c(C#N)cnc2cc1OC1CCOC1 (stereo not shown) [Example 2, (E)-N-(4-(3-CHLORO-4-(PYRIDIN-2-YL-METHOXY)PHENYLAMINO)-3-CYANO-7-(TETRAHYDROFURAN-3-YL-OXY)QUINOLIN-6-YL)-4-(DIMETHYLAMINO)-BUT-2-ENAMIDE] |  | 149
